Structures are written as SMILES.

The nature of this series: Compound was tested for toxicity (lethal dose) in male white swiss mice. Format: organism-based. As to conditions: mouse, in vivo.
By LD50 is commonly meant the dose expected to kill half of the subjects tested. Read a low LD50 as greater toxicity. Take `CC(N)Cc1ccc(O)c(O)c1` (racemic): the LD50 came to 576 mg/kg.

`C[C@](N)(Cc1ccc(O)c(O)c1)C(=O)O` [METHYLDOPA] came in with an LD50 of 1890 mg/kg.

Compound `CC(N)(Cc1cc(O)c(O)cc1O)C(=O)O` (racemic) returned an LD50 of 289 mg/kg.

`CC(N)Cc1cc(O)c(O)cc1O` (racemic) gave an LD50 of 320 mg/kg.

As for `CC(N)(Cc1ccc(O)c(O)c1)C(=O)O` (racemic) [METHYLDOPA (RACEMIC)], the LD50 is 1320 mg/kg.

These data come from ChEMBL document CHEMBL1121572, “Synthetic and preliminary hemodynamic and whole animal toxicity studies on (R,S)-, (R)-, and (S)-2-methyl-3-(2,4,5-trihydroxyphenyl)alanine” (J Med Chem, 1980).
